# Legend:
# ITK = molecular target: T1, ITK (Homo sapiens, UniProt Q08881); assay: Inhibitory activity against ITK (ADP-Glo + ITK Kinase enzyme system kit); selectivity BTK vs. ITK; type: biochemical; settings: for IC50: ITK enzyme 0.4 ng/uL, ATP 25 uM, luminescence, duplicate; for Selectivity (based on IC50): selectivity for the inhibitory activity of BTK vs. ITK, Equation 1
# T1 construct: purchased Promega Corporation
# T1 sequence (Q08881 1-620): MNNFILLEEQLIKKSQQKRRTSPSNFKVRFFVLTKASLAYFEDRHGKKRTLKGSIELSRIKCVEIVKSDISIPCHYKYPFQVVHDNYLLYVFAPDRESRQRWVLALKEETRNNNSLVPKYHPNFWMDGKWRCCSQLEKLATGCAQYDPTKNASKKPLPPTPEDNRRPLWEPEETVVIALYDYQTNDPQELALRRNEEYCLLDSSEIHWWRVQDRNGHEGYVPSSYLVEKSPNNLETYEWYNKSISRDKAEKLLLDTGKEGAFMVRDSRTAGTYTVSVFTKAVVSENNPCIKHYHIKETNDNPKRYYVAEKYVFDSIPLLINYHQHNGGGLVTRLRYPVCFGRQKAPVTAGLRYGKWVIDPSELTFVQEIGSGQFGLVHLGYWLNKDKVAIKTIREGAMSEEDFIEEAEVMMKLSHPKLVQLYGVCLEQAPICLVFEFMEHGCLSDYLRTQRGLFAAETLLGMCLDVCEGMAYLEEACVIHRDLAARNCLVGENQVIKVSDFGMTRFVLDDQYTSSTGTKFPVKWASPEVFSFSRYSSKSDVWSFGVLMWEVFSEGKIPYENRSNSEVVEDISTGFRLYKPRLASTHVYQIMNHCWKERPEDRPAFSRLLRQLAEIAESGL
# BTK = BTK (Homo sapiens, UniProt Q06187); assay: Inhibitory activity against BTK (ADP-Glo + BTK Kinase enzyme system kit)
# BTK, sequence (Q06187 whole entry): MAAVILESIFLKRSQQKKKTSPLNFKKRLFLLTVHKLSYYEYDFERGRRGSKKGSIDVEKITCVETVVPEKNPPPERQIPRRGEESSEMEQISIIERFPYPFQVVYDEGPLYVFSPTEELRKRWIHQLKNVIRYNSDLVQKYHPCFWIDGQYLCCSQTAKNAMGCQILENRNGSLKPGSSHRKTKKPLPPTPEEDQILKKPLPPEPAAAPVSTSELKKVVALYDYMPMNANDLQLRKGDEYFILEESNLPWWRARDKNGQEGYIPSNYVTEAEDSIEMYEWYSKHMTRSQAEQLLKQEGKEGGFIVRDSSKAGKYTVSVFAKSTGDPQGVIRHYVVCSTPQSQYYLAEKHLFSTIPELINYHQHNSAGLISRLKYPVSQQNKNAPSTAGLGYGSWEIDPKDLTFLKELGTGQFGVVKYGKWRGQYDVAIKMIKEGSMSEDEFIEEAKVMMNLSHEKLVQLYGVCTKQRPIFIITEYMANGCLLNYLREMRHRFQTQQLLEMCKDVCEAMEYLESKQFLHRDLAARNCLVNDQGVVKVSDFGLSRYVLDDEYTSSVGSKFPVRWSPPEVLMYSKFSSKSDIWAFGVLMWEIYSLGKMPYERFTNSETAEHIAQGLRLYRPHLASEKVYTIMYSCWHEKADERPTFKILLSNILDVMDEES
SMILES,IC50 (ITK) [nM],Selectivity (based on IC50) (ITK),IC50 (BTK) [nM]
"C=CC(=O)N1CC2CC1C(n1nc(-c3ccc(C(=O)Nc4cc(F)ccn4)cc3)c3c(N)ncnc31)C2 (centres unmarked) [Ex. 67, 4-(1-(2-acryloyl-2-azabicyclo[2.2.1]heptan-6-yl)-4-amino-1H-pyrazolo[3,4-d]pyrimidin-3-yl)-N-(4-fluoropyridin-2-yl)benzamide]",54.1,108.2,0.5
"C=CC(=O)N1CC2CC1C(n1nc(-c3ccc(Oc4cccc(N(C)C)c4)cc3)c3c(N)ncnc31)C2 (centres unmarked) [Ex. 42, 1-(6-(4-amino-3-(4-(3-(dimethylamino)phenoxy)phenyl)-1H-pyrazolo[3,4-d]pyrimidin-1-yl)-2-azabicyclo[2.2.1]heptan-2-yl)prop-2-en-1-one]",> 500,>147,3.4
"C=CC(=O)N1C[C@@H]2C[C@H]1C[C@H]2n1nc(-c2ccc(Oc3ccccc3)cc2)c2c(N)ncnc21 [Ex. 14, 1-((1S,4S,5R)-5-(4-amino-3-(4-phenoxyphenyl)-1H-pyrazolo[3,4-d]pyrimidin-1-yl)-2-azabicyclo[2.2.1]heptan-2-yl)prop-2-en-1-one]",> 1000,>384.6,2.6
"CC#CC(=O)N1CC2CC1C(n1nc(-c3cccc(C(=O)Nc4ccccc4)c3)c3c(N)ncnc31)C2 (centres unmarked) [Ex. 22, 3-(4-amino-1-(2-but-2-ynoyl-2-azabicyclo[2.2.1]heptan-6-yl)-1H-pyrazolo[3,4-d]pyrimidin-3-yl)-N-phenylbenzamide]",,,> 1000
"C=CC(=O)N1CC2CC1CC2n1nc(-c2cccc(Oc3ccccc3)c2)c2c(N)ncnc21 (centres unmarked) [Ex. 25, 1-(5-(4-amino-3-(3-phenoxyphenyl)-1H-pyrazolo[3,4-d]pyrimidin-1-yl)-2-azabicyclo[2.2.1]heptan-2-yl)prop-2-en-1-one]",,,72.3
"C=CC(=O)N1CC2CC1C(n1nc(-c3ccc(Oc4ccncc4)cc3)c3c(N)ncnc31)C2 (centres unmarked) [Ex. 36, 1-(6-(4-amino-3-(4-(pyridin-4-yloxy)phenyl)-1H-pyrazolo[3,4-d]pyrimidin-1-yl)-2-azabicyclo[2.2.1]heptan-2-yl)prop-2-en-1-one]",,,> 1000
"N#CCC(=O)N1C[C@@H]2C[C@@H]1[C@@H](n1nc(-c3ccc(C(=O)Nc4ccccn4)cc3)c3c(N)ncnc31)C2 [Ex. 74, 4-(4-amino-1-((1R,4R,6S)-2-(2-cyanoacetyl)-2-azabicyclo[2.2.1]heptan-6-yl)-1H-pyrazolo[3,4-d]pyrimidin-3-yl)-N-(pyridin-2-yl)benzamide]",,,123
"C#CC(=O)N1CC2CC1C(n1nc(-c3ccc(-c4ccccc4)cc3)c3c(N)ncnc31)C2 (centres unmarked) [Ex. 30, 1-(6-(4-amino-3-(biphenyl-4-yl)-1H-pyrazolo[3,4-d]pyrimidin-1-yl)-2-azabicyclo[2.2.1]heptan-2-yl)prop-2-yn-1-one]",,,> 1000
"C/C=C/C(=O)N1CC2CC1C(n1nc(-c3ccc(Oc4ccccc4)cc3)c3c(N)ncnc31)C2 (centres unmarked) [Ex. 3, (E)-1-(6-(4-amino-3-(4-phenoxyphenyl)-1H-pyrazolo[3,4-d]pyrimidin-1-yl)-2-azabicyclo[2.2.1]heptan-2-yl)but-2-en-1-one]",,,202
"C=CC(=O)N1CC2CC1CC2n1nc(-c2cccc(C(=O)Nc3ccccc3)c2)c2c(N)ncnc21 (centres unmarked) [Ex. 24, 3-(1-(2-acryloyl-2-azabicyclo[2.2.1]heptan-5-yl)-4-amino-1H-pyrazolo[3,4-d]pyrimidin-3-yl)-N-phenylbenzamide]",,,560
"C#CC(=O)N1CC2CC1C(n1nc(-c3ccc(Nc4ccccc4)cc3)c3c(N)ncnc31)C2 (centres unmarked) [Ex. 31, 1-(6-(4-amino-3-(4-(phenylamino)phenyl)-1H-pyrazolo[3,4-d]pyrimidin-1-yl)-2-azabicyclo[2.2.1]heptan-2-yl)prop-2-yn-1-one]",,,12.5
"CN(C)C/C=C/C(=O)N1CC2CC1C(n1nc(-c3ccc(C(=O)Nc4ccccn4)cc3)c3c(N)ncnc31)C2 (centres unmarked) [Ex. 60, (E)-4-(4-amino-1-(2-(4-(dimethylamino)but-2-enoyl)-2-azabicyclo[2.2.1]heptan-6-yl)-1H-pyrazolo[3,4-d]pyrimidin-3-yl)-N-(pyridin-2-yl)benzamide]",,,36.4
"C#CC(=O)N1CC2CC1C(n1nc(-c3cccc(C(=O)Nc4ccc(C(C)C)c(C)c4)c3)c3c(N)ncnc31)C2 (centres unmarked) [Ex. 9, 3-(4-amino-1-(2-propioloyl-2-azabicyclo[2.2.1]heptan-6-yl)-1H-pyrazolo[3,4-d]pyrimidin-3-yl)-N-(4-isopropyl-3-methylphenyl)benzamide]",,,53.8
"C#CC(=O)N1CC2CC1C(n1nc(-c3cccc(C(=O)Nc4ccc(C(C)C)cc4)c3)c3c(N)ncnc31)C2 (centres unmarked) [Ex. 7, 3-(4-amino-1-(2-propioloyl-2-azabicyclo[2.2.1]heptan-6-yl)-1H-pyrazolo[3,4-d]pyrimidin-3-yl)-N-(4-isopropylphenyl)benzamide]",,,31.6
"CC(C)C=C(C#N)C(=O)N1C[C@H]2CC(n3nc(-c4ccc(C(=O)Nc5ccccn5)cc4)c4c(N)ncnc43)[C@H]1C2 (stereo partly drawn) [Ex. 76, 4-(4-amino-1-((1R,4R)-2-(2-cyano-4-methylpent-2-enoyl)-2-azabicyclo[2.2.1]heptan-6-yl)-1H-pyrazolo[3,4-d]pyrimidin-3-yl)-N-(pyridin-2-yl)benzamide]",,,10
"C=CC(=O)N1CC2CC1CC2n1nc(-c2ccc(C(=O)Nc3ccccc3)cc2)c2c(N)ncnc21 (centres unmarked) [Ex. 23, 4-(1-(2-acryloyl-2-azabicyclo[2.2.1]heptan-5-yl)-4-amino-1H-pyrazolo[3,4-d]pyrimidin-3-yl)-N-phenylbenzamide]",,,78.8

# More lines, now with the values ahead:
IC50 (ITK) [nM],Selectivity (based on IC50) (ITK),IC50 (BTK) [nM],SMILES
> 1000,>303.3,3.3,"C=CC(=O)N1CC2CC1CC2n1nc(-c2ccc(Oc3ccccc3)cc2)c2c(N)ncnc21 (centres unmarked) [Ex. 12, 1-(5-(4-amino-3-(4-phenoxyphenyl)-1H-pyrazolo[3,4-d]pyrimidin-1-yl)-2-azabicyclo[2.2.1]heptan-2-yl)prop-2-en-1-one]"
,,8.5,"C=CC(=O)N1CC2CC1C(n1nc(-c3ccc(C(=O)Nc4ccccc4N(C)C)cc3)c3c(N)ncnc31)C2 (centres unmarked) [Ex. 55, 4-(1-(2-acryloyl-2-azabicyclo[2.2.1]heptan-6-yl)-4-amino-1H-pyrazolo[3,4-d]pyrimidin-3-yl)-N-(2-(dimethylamino)phenyl)benzamide]"
,,> 1000,"CCC#CC(=O)N1CC2CC1C(n1nc(-c3ccc(Oc4ccccc4)cc3)c3c(N)ncnc31)C2 (centres unmarked) [Ex. 16, 1-(6-(4-amino-3-(4-phenoxyphenyl)-1H-pyrazolo[3,4-d]pyrimidin-1-yl)-2-azabicyclo[2.2.1]heptan-2-yl)pent-2-yn-1-one]"
,,10.8,"C=CC(=O)N1CC2CC1C(n1nc(-c3ccc(C(=O)Nc4ccccc4)cc3)c3c(N)ncnc31)C2 (centres unmarked) [Ex. 19, 4-(1-(2-acryloyl-2-azabicyclo[2.2.1]heptan-6-yl)-4-amino-1H-pyrazolo[3,4-d]pyrimidin-3-yl)-N-phenylbenzamide]"
,,6.9,"C#CC(=O)N1CC2CC1C(n1nc(-c3cccc(C(=O)Nc4ccccc4)c3)c3c(N)ncnc31)C2 (centres unmarked) [Ex. 18, 3-(4-amino-1-(2-propioloyl-2-azabicyclo[2.2.1]heptan-6-yl)-1H-pyrazolo[3,4-d]pyrimidin-3-yl)-N-phenylbenzamide]"
,,5.3,"Nc1ncnc2c1c(-c1ccc(Oc3ccccc3)cc1)nn2C1CC2CC1N(C(=O)/C=C/CN1CCOCC1)C2 (centres unmarked) [Ex. 58, (E)-1-(6-(4-amino-3-(4-phenoxyphenyl)-1H-pyrazolo[3,4-d]pyrimidin-1-yl)-2-azabicyclo[2.2.1]heptan-2-yl)-4-morpholinobut-2-en-1-one]"
,,63,"C=CC(=O)N1CC2CC1C(n1nc(-c3cccc(C(=O)Nc4ccccc4)c3)c3c(N)ncnc31)C2 (centres unmarked) [Ex. 21, 3-(1-(2-acryloyl-2-azabicyclo[2.2.1]heptan-6-yl)-4-amino-1H-pyrazolo[3,4-d]pyrimidin-3-yl)-N-phenylbenzamide]"
,,49.6,"Nc1ncnc2c1c(-c1ccc(Oc3ccccc3)cc1)nn2C1CC2CC1CN2C(=O)/C=C/CN1CCCCC1 (centres unmarked) [Ex. 66, (E)-1-(5-(4-amino-3-(4-phenoxyphenyl)-1H-pyrazolo[3,4-d]pyrimidin-1-yl)-2-azabicyclo[2.2.1]heptan-2-yl)-4-(piperidin-1-yl)but-2-en-1-one]"
,,5.1,"C=CC(=O)N1CC2CC1C(n1nc(-c3ccc(C(=O)Nc4ccccc4)cc3F)c3c(N)ncnc31)C2 (centres unmarked) [Ex. 52, 4-(1-(2-acryloyl-2-azabicyclo[2.2.1]heptan-6-yl)-4-amino-1H-pyrazolo[3,4-d]pyrimidin-3-yl)-3-fluoro-N-phenylbenzamide]"
,,> 1000,"CC#CC(=O)N1CC2CC1C(n1nc(-c3ccc(C(=O)Nc4ccccc4)cc3)c3c(N)ncnc31)C2 (centres unmarked) [Ex. 20, 4-(4-amino-1-(2-(but-2-ynoyl)-2-azabicyclo[2.2.1]heptan-6-yl)-1H-pyrazolo[3,4-d]pyrimidin-3-yl)-N-phenylbenzamide]"
,,25.2,"Nc1ncnc2c1c(-c1ccc(Oc3ccccc3)cc1)nn2C1CC2CC1N(C(=O)C#CC1CC1)C2 (centres unmarked) [Ex. 28, 1-(6-(4-amino-3-(4-phenoxyphenyl)-1H-pyrazolo[3,4-d]pyrimidin-1-yl)-2-azabicyclo[2.2.1]heptan-2-yl)-3-cyclopropylprop-2-yn-1-one]"

# Source: patent publication US10399988B2, “4-aminopyrazolo[3,4-d]pyrimidinylazabicyclo derivatives and pharmaceutical composition comprising the same” (Daewoong Pharmaceutical Co., Ltd., priority 2016, dated 2019)
